Activity calls are given as the source filed them. No rule for the calls is given here.
Tested on: CCRIS mutagenicity, Ames/micronucleus/aberration tests
Experiment: CCRIS mutagenicity studies
[1] = Test System: AMES SALMONELLA TYPHIMURIUM, Strain/Indicator: TA98, Metabolic Activation: NONE, Method: PREINCUBATION
[2] = Test System: AMES SALMONELLA TYPHIMURIUM, Strain/Indicator: TA98, Metabolic Activation: NONE, Method: STANDARD PLATE
[3] = Test System: AMES SALMONELLA TYPHIMURIUM, Strain/Indicator: TA100, Metabolic Activation: NONE, Method: PREINCUBATION
[4] = Test System: AMES SALMONELLA TYPHIMURIUM, Strain/Indicator: TA102, Metabolic Activation: NONE, Method: STANDARD PLATE
[5] = Test System: AMES SALMONELLA TYPHIMURIUM, Strain/Indicator: TA1537, Metabolic Activation: NONE, Method: PREINCUBATION

Q: Which results are given for `COc1cc(NC(C)CCCN)c2ncccc2c1` (stereo not given)?
A: mutagenic call (Test System: AMES SALMONELLA TYPHIMURIUM, Strain/Indicator: TA97, Metabolic Activation: NONE, Method: PREINCUBATION): active; positive; mutagenic call (Test System: AMES SALMONELLA TYPHIMURIUM, Strain/Indicator: TA97, Metabolic Activation: RAT, LIVER, S-9, PHENOBARBITAL AND BETA-NAPHTHOFLAVONE, Method: PREINCUBATION): active; positive; mutagenic call (Test System: AMES SALMONELLA TYPHIMURIUM, Strain/Indicator: TA97A, Metabolic Activation: NONE, Method: STANDARD PLATE): inactive; negative; mutagenic call (Test System: AMES SALMONELLA TYPHIMURIUM, Strain/Indicator: TA97A, Metabolic Activation: RAT LIVER S-9, PHENOBARBITAL, Method: STANDARD PLATE): inactive; negative; mutagenic call [1]: inactive; negative; mutagenic call [2]: active; positive; mutagenic call (Test System: AMES SALMONELLA TYPHIMURIUM, Strain/Indicator: TA98, Metabolic Activation: RAT, LIVER, S-9, AROCLOR 1254 OR PHENOBARBITOL, Method: STANDARD PLATE): active; positive; mutagenic call (Test System: AMES SALMONELLA TYPHIMURIUM, Strain/Indicator: TA98, Metabolic Activation: RAT, LIVER, S-9, PHENOBARBITAL AND BETA-NAPHTHOFLAVONE, Method: PREINCUBATION): inactive; negative; mutagenic call (Test System: AMES SALMONELLA TYPHIMURIUM, Strain/Indicator: TA98, Metabolic Activation: RAT, LIVER, S-9, Method: PREINCUBATION): inactive; negative; mutagenic call [3]: inactive; negative; mutagenic call (Test System: AMES SALMONELLA TYPHIMURIUM, Strain/Indicator: TA100, Metabolic Activation: RAT LIVER S-9, PHENOBARBITAL, Method: STANDARD PLATE): inactive; negative; mutagenic call (Test System: AMES SALMONELLA TYPHIMURIUM, Strain/Indicator: TA100, Metabolic Activation: RAT, LIVER, S-9, AROCLOR 1254 OR PHENOBARBITOL, Method: STANDARD PLATE): active; positive; mutagenic call (Test System: AMES SALMONELLA TYPHIMURIUM, Strain/Indicator: TA100, Metabolic Activation: RAT, LIVER, S-9, PHENOBARBITAL AND BETA-NAPHTHOFLAVONE, Method: PREINCUBATION): inactive; negative; mutagenic call (Test System: AMES SALMONELLA TYPHIMURIUM, Strain/Indicator: TA100, Metabolic Activation: RAT, LIVER, S-9, Method: PREINCUBATION): inactive; negative; mutagenic call (Test System: AMES SALMONELLA TYPHIMURIUM, Strain/Indicator: TA102, Metabolic Activation: NONE, Method: PREINCUBATION): inactive; negative; mutagenic call [4]: inactive; negative; mutagenic call (Test System: AMES SALMONELLA TYPHIMURIUM, Strain/Indicator: TA102, Metabolic Activation: RAT LIVER S-9, PHENOBARBITAL, Method: STANDARD PLATE): inactive; negative; mutagenic call (Test System: AMES SALMONELLA TYPHIMURIUM, Strain/Indicator: TA102, Metabolic Activation: RAT, LIVER, S-9, PHENOBARBITAL AND BETA-NAPHTHOFLAVONE, Method: PREINCUBATION): inactive; negative; mutagenic call (Test System: AMES SALMONELLA TYPHIMURIUM, Strain/Indicator: TA104, Metabolic Activation: NONE, Method: STANDARD PLATE): inactive; negative; mutagenic call (Test System: AMES SALMONELLA TYPHIMURIUM, Strain/Indicator: TA104, Metabolic Activation: RAT LIVER S-9, PHENOBARBITAL, Method: STANDARD PLATE): inactive; negative; mutagenic call (Test System: AMES SALMONELLA TYPHIMURIUM, Strain/Indicator: TA1535, Metabolic Activation: NONE, Method: STANDARD PLATE): inactive; negative; mutagenic call (Test System: AMES SALMONELLA TYPHIMURIUM, Strain/Indicator: TA1535, Metabolic Activation: RAT, LIVER, S-9, AROCLOR 1254 OR PHENOBARBITOL, Method: STANDARD PLATE): inactive; negative; mutagenic call [5]: active; positive; mutagenic call (Test System: AMES SALMONELLA TYPHIMURIUM, Strain/Indicator: TA1537, Metabolic Activation: NONE, Method: STANDARD PLATE): inactive; negative; mutagenic call (Test System: AMES SALMONELLA TYPHIMURIUM, Strain/Indicator: TA1537, Metabolic Activation: RAT, LIVER, S-9, AROCLOR 1254, Method: PREINCUBATION): active; positive; mutagenic call (Test System: AMES SALMONELLA TYPHIMURIUM, Strain/Indicator: TA1537, Metabolic Activation: RAT, LIVER, S-9, AROCLOR 1254, Method: STANDARD PLATE): active; positive; mutagenic call (Test System: AMES SALMONELLA TYPHIMURIUM, Strain/Indicator: TA1537, Metabolic Activation: RAT, LIVER, S-9, AROCLOR 1254 OR PHENOBARBITOL, Method: STANDARD PLATE): inactive; negative; mutagenic call (Test System: AMES SALMONELLA TYPHIMURIUM, Strain/Indicator: TA1538, Metabolic Activation: NONE, Method: STANDARD PLATE): inactive; negative; mutagenic call (Test System: AMES SALMONELLA TYPHIMURIUM, Strain/Indicator: TA1538, Metabolic Activation: RAT, LIVER, S-9, AROCLOR 1254 OR PHENOBARBITOL, Method: STANDARD PLATE): inactive; negative; mutagenic call (Test System: E.COLI, Strain/Indicator: WP2UVRA/PKM101, Metabolic Activation: NONE, Method: PREINCUBATION): inactive; negative; mutagenic call (Test System: E.COLI, Strain/Indicator: WP2UVRA/PKM101, Metabolic Activation: RAT LIVER S-9, PHENOBARBITAL AND 5,6-BENZOFLAVONE, Method: PREINCUBATION): inactive; negative

Q: With `Clc1cccc(Cl)n1` as the molecule, how does the mutagenic call (Test System: AMES SALMONELLA TYPHIMURIUM, Strain/Indicator: TA97, Metabolic Activation: NONE, Method: STANDARD PLATE) read?
A: inactive; negative

Q: And the mutagenic call [2]?
A: inactive; negative

Q: What about the mutagenic call (Test System: AMES SALMONELLA TYPHIMURIUM, Strain/Indicator: TA98, Metabolic Activation: RAT, LIVER, S-9, AROCLOR 1254, Method: STANDARD PLATE) of the same molecule?
A: inactive; negative

Q: And the mutagenic call (Test System: AMES SALMONELLA TYPHIMURIUM, Strain/Indicator: TA100, Metabolic Activation: NONE, Method: STANDARD PLATE)?
A: inactive; negative

Q: And the mutagenic call (Test System: AMES SALMONELLA TYPHIMURIUM, Strain/Indicator: TA100, Metabolic Activation: RAT, LIVER, S-9, AROCLOR 1254, Method: STANDARD PLATE)?
A: inactive; negative

Q: What about the mutagenic call [4] of the same molecule?
A: inactive; negative

Q: What about the mutagenic call (Test System: AMES SALMONELLA TYPHIMURIUM, Strain/Indicator: TA102, Metabolic Activation: RAT, LIVER, S-9, AROCLOR 1254, Method: STANDARD PLATE) of the same molecule?
A: inactive; negative

Q: What does the source list for `O=C1OC(=O)c2c(Cl)c(Cl)c(Cl)c(Cl)c21`?
A: mutagenic call (End Point: IN VITRO CHROMOSOMAL ABERRATIONS, Test System: CHINESE HAMSTER OVARY CELLS, Metabolic Activation: NONE): inactive; negative; mutagenic call (End Point: IN VITRO CHROMOSOMAL ABERRATIONS, Test System: CHINESE HAMSTER OVARY CELLS, Metabolic Activation: RAT, LIVER, S-9, AROCLOR 1254): inactive; negative; mutagenic call (Test System: AMES SALMONELLA TYPHIMURIUM, Strain/Indicator: TA98, Metabolic Activation: HAMSTER, LIVER, S-9, AROCLOR 1254 (10%), Method: PREINCUBATION): inactive; negative; mutagenic call [1]: inactive; negative; mutagenic call (Test System: AMES SALMONELLA TYPHIMURIUM, Strain/Indicator: TA98, Metabolic Activation: RAT, LIVER, S-9, AROCLOR 1254 (10%), Method: PREINCUBATION): inactive; negative; mutagenic call (Test System: AMES SALMONELLA TYPHIMURIUM, Strain/Indicator: TA100, Metabolic Activation: HAMSTER, LIVER, S-9, AROCLOR 1254 (10%), Method: PREINCUBATION): inactive; negative; mutagenic call [3]: inactive; negative; mutagenic call (Test System: AMES SALMONELLA TYPHIMURIUM, Strain/Indicator: TA100, Metabolic Activation: RAT, LIVER, S-9, AROCLOR 1254 (10%), Method: PREINCUBATION): inactive; negative; mutagenic call (Test System: AMES SALMONELLA TYPHIMURIUM, Strain/Indicator: TA1535, Metabolic Activation: HAMSTER, LIVER, S-9, AROCLOR 1254 (10%), Method: PREINCUBATION): inactive; negative; mutagenic call (Test System: AMES SALMONELLA TYPHIMURIUM, Strain/Indicator: TA1535, Metabolic Activation: NONE, Method: PREINCUBATION): inactive; negative; mutagenic call (Test System: AMES SALMONELLA TYPHIMURIUM, Strain/Indicator: TA1535, Metabolic Activation: RAT, LIVER, S-9, AROCLOR 1254 (10%), Method: PREINCUBATION): inactive; negative; mutagenic call (Test System: AMES SALMONELLA TYPHIMURIUM, Strain/Indicator: TA1537, Metabolic Activation: HAMSTER, LIVER, S-9, AROCLOR 1254 (10%), Method: PREINCUBATION): inactive; negative; mutagenic call [5]: inactive; negative; mutagenic call (Test System: AMES SALMONELLA TYPHIMURIUM, Strain/Indicator: TA1537, Metabolic Activation: RAT, LIVER, S-9, AROCLOR 1254 (10%), Method: PREINCUBATION): inactive; negative

Q: How did the mutagenic call (Test System: AMES SALMONELLA TYPHIMURIUM, Strain/Indicator: TA1538, Metabolic Activation: NONE, Method: PREINCUBATION) turn out when `O=C(/C=C/c1ccccc1)OC/C=C/c1ccccc1` was run?
A: active; positive

Q: What about the mutagenic call (Test System: Mouse lymphoma, Strain/Indicator: L5178Y (tk+/tk-), Metabolic Activation: None, Method: Suspension/plate) of the same molecule?
A: active; inconclusive (previous evaluation positive)

Q: What about the mutagenic call (Test System: Mouse lymphoma, Strain/Indicator: L5178Y (tk+/tk-), Metabolic Activation: Rat, Liver, S-9, Aroclor 1254, Method: Suspension/plate) of the same molecule?
A: active; positive

Reference: PubChem BioAssay AID1259407 (Chemical Carcinogenesis Research Information System (CCRIS), 2018)
